From patent publication US20220386591A1, “CRYOPRESERVATION COMPOSITIONS AND METHODS INCLUDING GLYCEROL ESTER COMPONENTS” (THE SECANT GROUP LLC, priority 2021, published 2022)

Test system: Jurkat E6.1 cells (ATCC #TIB-152)
Test: Post-thaw viability of cells frozen immediately after addition of cryopreservative (trypan blue exclusion)
Type: cell-based
Settings: 10 wt % DMSO, FIG. 1
Procedure: A glycerol ester component in the form of PGS was added to cell culture media containing Jurkat E6.1 cells (ATCC #TIB-152) at three different concentrations: 250 μg/mL (about 0.025 wt %), 500 μg/mL (about 0.05 wt %), and 1000 μg/mL (about 0.1 wt %). […] Cell culture media containing Jurkat E6.1 cells (ATCC #TIB-152) with no PGS and cell culture media containing Jurkat E6.1 cells (ATCC #TIB-152) with 10% DMSO served as controls. Cells were then immediately frozen at a rate of −1° C./min to −80° C. Once frozen, the cryopreserved cells were transferred to liquid nitrogen vapor phase storage for 72 hours. Following storage in a liquid nitrogen vapor phase, the cells were thawed and their viability was assessed through a trypan blue exclusion assay using a ThermoFisher Countess II FL automated cell counter to determine the percentage of viable cells.

**Q.** How did the “cryoprotection of viable cells post-thaw (positive control)” value turn out when `C[S+](C)[O-]` [DMSO, dimethyl sulfoxide] was run?
**A.** provided cryoprotection to essentially all of the viable cells
